Assay results published in patent publication US11331304B2, “YAP1 inhibitors and methods” (The Jackson Laboratory, priority 2016, dated 2022).
Entries after “also recorded” stand apart in the source; their conditions may differ.

Key:
[1] = test system: mouse medulloblastoma cells; assay: IC50 / viability (Cell Titer Blue) in mouse medulloblastoma tumorsphere cell line; type: cell-based; details: FIGS. 9-11
Experimental: Uptake was calculated by measuring relative fluorescence in two different primary medulloblastoma cell lines. Absorbance measurements were normalized to t=0 with drugs in the well, the drugs were washed out 30 minutes later, and absorbance was measured again. FIG. 9B) IC50 in a mouse medulloblastoma tumorsphere cell line treated with verteporfin or a verteporfin derivative compound (T10, T11, T13, T14, or T15). DMSO was used as a control.
(§1) Primary cells from spontaneous mouse medulloblastoma ([…];p53^−/− or FSMO;GFAPcre) and MED311 PDX model were isolated and cultured in serum-free stem cell medium (DMEM/F12, B27, pen/strep, bFGF9 10 nanograms per milliliter (ng/mL)), and EGF (20 ng/mL). Number of self-renewing stem cells in vitro were measured by plating single cells at a clonal density (<1 cell/μL) and counting spheres >100 μM 7 days later. To establish IC50 values, 3000 mouse medulloblastoma cells were plated in 96 wells and treated varying concentrations of verteporfin and new derivatives were synthesized, in triplicate, and viability was measured using Cell Titer Blue assay (Promega, Madison, Wis.) 3 days after drug treatment.

[2] = Solubility of verteporfin derivative compounds in water and buffer (pH = 2); type: physicochemical; details: for Buffer (pH = 2) result: phosphate buffer pH = 2; for Water result: at the amount per volume in mg/mL
[3] = target: YAP:TEAD (Homo sapiens, UniProt P46937); details: Liu-Chittenden et al. 2012; cited from earlier work
Sequence of YAP:TEAD (P46937 whole entry): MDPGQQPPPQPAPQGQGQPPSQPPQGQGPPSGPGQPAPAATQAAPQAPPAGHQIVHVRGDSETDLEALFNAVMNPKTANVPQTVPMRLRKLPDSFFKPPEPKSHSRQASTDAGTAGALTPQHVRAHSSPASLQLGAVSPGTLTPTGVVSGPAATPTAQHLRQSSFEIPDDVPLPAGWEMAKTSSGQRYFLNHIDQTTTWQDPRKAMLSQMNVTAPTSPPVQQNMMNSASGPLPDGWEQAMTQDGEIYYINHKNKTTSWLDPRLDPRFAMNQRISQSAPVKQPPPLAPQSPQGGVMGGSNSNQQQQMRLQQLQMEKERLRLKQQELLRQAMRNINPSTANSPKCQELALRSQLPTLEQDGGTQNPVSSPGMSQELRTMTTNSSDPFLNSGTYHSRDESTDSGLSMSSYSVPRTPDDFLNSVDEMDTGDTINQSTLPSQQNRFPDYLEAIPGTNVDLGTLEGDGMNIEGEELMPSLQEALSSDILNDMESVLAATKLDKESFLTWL

[4] = test system: Smo-M2;GFAP-cre medulloblastoma tumor slices; assay: Tumor slice culture ex vivo, tissue viability by Cell Titer Blue; type: cell-based, mouse
Experimental: Fresh tumor tissues were dissected and cut into 250 micrometer (μm) thick slices and cultured at air-media interface in serum-free medium (DMEM/F12, B27, pen/strep) for 8-12 days. Tissue viability was measured by Cell Titer Blue assay (Promega, Madison, Wis.) at 2-4 days intervals. DMSO or drugs were added after each viability reading.

[5] = test system: SMO-M2;GFAP-cre mice; assay: Kaplan-Meier survival of SMO-M2;GFAP-cre mice, intraperitoneal injection; type: in vivo, mouse; details: IP injection, versus vehicle (DMSO), N=8 each group
[6] = test system: MED311 human patient-derived xenograft (PDX) SHH medulloblastoma cells; assay: VP treatment of primary cells from SHH subgroup PDX model; type: cell-based
Experimental: (§2) To test YAP function in human cells, primary cells from a SHH subgroup PDX model (MED311) were isolated and treated with VP.
as §1

[7] = test system: Ptch;p53 and Smo-M2;GFAP-cre medulloblastoma cells; assay: Self-renewal (sphere formation at clonal density) of SHH medulloblastoma tumorspheres; type: cell-based, mouse; details: for suppression of self-renewal: Ptch;p53 and Smo-M2;GFAP-cre cells in vitro, n=3; for self-renewal (in words): in vitro
Experimental: as §2, §1

C=Cc1c(C)c2cc3nc(cc4[nH]c(cc5nc(cc1[nH]2)C(C)=C5CCC(=O)OCCOCCOCCOC)c(CCC(=O)OCCOCCOCCOC)c4C)[C@@]1(C)C3=CC=C(C(=O)OC)[C@H]1C(=O)OC [Compound T9, 2-[2-(2-methoxyethoxy)ethoxy]ethyl 3-[(23 S,24R)-14-ethenyl-5-[3-[2-[2-(2-methoxyethoxy)ethoxy]ethoxy]-3-oxo-propyl]-22,23-bis(methoxycarbonyl)-4,10,15,24-tetramethyl-25,26,27,28-tetraazahexacyclo[16.6.1.13,6.18,11.113,16.019,24]octacosa-1,3,5,7,9,11(27),12,14,16,18(25), 19,21-dodecaen-9-yl]propanoate]
activity / potency compared to VP [1]: decreased solubility and activity | solubility compared to VP [2]: decreased solubility

C=Cc1c(C)c2cc3nc(cc4[nH]c(cc5nc(cc1[nH]2)C(C)=C5CCC(=O)NCCN(C)C)c(CCC(=O)NCCN(C)C)c4C)[C@@]1(C)C3=CC=C(C(=O)OC)[C@H]1C(=O)OC [Compound T13, N-[2-(dimethylamino)ethyl]-3-[(23 S,24R)-14-ethenyl-5-[3-[2-(dimethylamino)ethylamino]-3-oxo-propyl]-22,23-bis(methoxycarbonyl)-4,10,15,24-tetramethyl-25,26,27,28-tetraazahexacyclo[16.6.1.13,6.18,11.113,16.019,24]octacosa-1,3,5,7,9,11(27), 12,14,16,18(25), 19,21-dodecaen-9-yl]propanamide]
activity / potency compared to VP [1]: more soluble and potent than VP | solubility compared to VP [2]: more soluble

C=Cc1c(C)c2cc3nc(cc4[nH]c(cc5nc(cc1[nH]2)C(C)=C5CCC(=O)N(C)CCN(C)C)c(CCC(=O)N(C)CCN(C)C)c4C)[C@@]1(C)C3=CC=C(C(=O)OC)[C@H]1C(=O)OC [Compound T15, N-[2-(dimethylamino)ethyl]-3-[(23 S,24R)-14-ethenyl-5-[3-[2-(dimethylamino)ethyl-methyl-amino]-3-oxo-propyl]-22,23-bis(methoxycarbonyl)-4,10,15,24-tetramethyl-25,26,27,28-tetraazahexacyclo[16.6.1.13,6.18,11.113,16.019,24]octacosa-1,3,5,7,9,11(27), 12,14,16,18(25),19,21-dodecaen-9-yl]-N-methyl-propanamide]
Buffer (pH = 2) result [2]: soluble | Water result [2]: soluble

C=Cc1c(C)c2cc3nc(cc4[nH]c(cc5nc(cc1[nH]2)C(C)=C5CCC(=O)O)c(CCC(=O)OC)c4C)[C@@]1(C)C3=CC=C(C(=O)OC)[C@H]1C(=O)OC [Verteporfin, 3-[(23 S,24R)-14-ethenyl-5-(3-methoxy-3-oxopropyl)-22,23-bis(methoxycarbonyl)-4,10,15,24-tetramethyl-25,26,27,28-tetraazahexacyclo[16.6.1.13,6.18,11.113,16.019,24]octacosa-1,3,5,7,9,11(27),12,14,16,18(25), 19,21-dodecaen-9-yl]propanoic acid]
YAP:TEAD binding [3]: inhibit YAP:TEAD binding | response of tumor tissue explants grown as intact slices [4]: significant response | survival [5]: increase survival | solubility (in words) [2]: poor solubility | Buffer (pH = 2) result [2]: insoluble | Water result [2]: insoluble | cell morphology ([6]; 24 hours post-VP treatment, listed as VP): significant morphology change; also recorded: morphological changes consistent with apoptosis | proliferation ([6]; upon VP treatment): reduced proliferation | suppression of self-renewal ([7]; 0.1 μM): ~50% | self-renewal (in words) ([7]; 100 nM): suppressed self-renewal | self-renewal (in words) ([7]; 1 μM): completely suppressed self-renewal | suppression of self-renewal [7]: 100%
